Structures can show the parent of a compound that is named as a salt.
Legend:
Type in all cases: cell-based
Escherichia coli DH5α = assay: Effect of biological buffers with or without protamine on the growth of Escherichia coli DH5α; conditions: buffer without protamine; starting inoculum 10^7 cells; mean of three replicates
Protocol: (§1) All bacterial strains are maintained as frozen stocks at −80° C. in TSB, Luria-Bertani broth.
(§2) Throughout the experiments strains are subcultured every 2 weeks on TSA (tryptic soy agar; 15 g l^−1 agar) or LBA (Luria-Bertani agar; 15 g l^−1 agar) depending upon the type of bacteria and experiment and kept at 4° C. The incubation temperature is 37° C. except for photo-heterotrophic bacteria (30° C.).
(§3) The growth curve is determined by measuring the optical density (OD), growth rate and doubling time. Additionally, the number of colony forming units is determined by counting bacterial spots.
(§4) Bacterial growth is monitored by recording the increase in optical density (OD) at 560 nm in a spectrophotometer (Ultrospec 1000, Pharmacia Biotech, England). Sterile medium is used as reference. […] At given times, 100 μl aliquots of the samples are removed and spread on corresponding agar plates. If necessary, the samples are diluted by factors between 10^2−10^8 to ensure good count ability. Colony forming unit determination (CFU/ml) is carried out in duplicate using a CCD camera module (Sony Corp., Japan) applying the BioProfil Software V 2000.01 (Vilber Lourmat, France).
(§5) A commercially available protamine from Salmon is obtained from Sigma Aldrich (Taufkirchen, Germany). A stock solution is prepared by dissolving protamine in distilled water. The solution is then sterilized with Rotabilo© filter units (0.22 μm; Carl Roth, Karlsruhe, Germany) and stored at −20° C. until use.
Determination of Bactericidal Effect of Biological Buffers With or Without Protamine on Gram-negative Bacteria
(§6) In all experiments the starting inoculum is 10^7 cells. The data shown are average means of three replicates.

[1] = tested on: Micrococcus luteus DSM 348; assay: Effect of biological buffers with or without protamine on the growth of Micrococcus luteus DSM 348; conditions: for μ (growth rate): buffer without protamine, pH of 8.0 (FIG. 4), starting inoculum 10^7 cells, mean of three replicates
Protocol: as §1, §2, §3, §4, §5
Determination of Bactericidal Effect of Biological Buffers With or Without Protamine on Gram-positive Bacteria
as §6

Pseudomonas fluorescens = assay: Protamine tolerance of Pseudomonas fluorescens with a special phenotype
Escherichia coli = assay: Growth of Escherichia coli in the presence of protamine

| Compound | td (doubling time) (Escherichia coli DH5α) | μ (growth rate) (Escherichia coli DH5α) | μ (growth rate) [1] | concentration of protamine needed for bacterial death on further addition of lysozyme ([1]; pH of 8.0, citrate + bicarbonate composition with protamine, relative to the amount needed without lysozyme) | effect of the composition additionally comprising protamine ([1]; pH of 8.0, citrate + bicarbonate composition) | protamine concentrations tolerated (Pseudomonas fluorescens) | protamine concentration at which the organism does not grow (Escherichia coli) |
| --- | --- | --- | --- | --- | --- | --- | --- |
| O=C([O-])O.[Na+] [0.1M NaHCO3, NaHCO3] | 3.01 h | 0.230 h⁻¹ | 0 h⁻¹ |  |  |  |  |
| O=C(O)CC(O)(CC(=O)O)C(=O)O [0.4M citrate] | 3.75 h | 0.185 h⁻¹ | 0 h⁻¹ |  |  |  |  |
| lysozyme |  |  |  | 30% |  |  |  |
| protamine |  |  |  |  | bacterial death | more than 40 mg/ml | 1,5 mg/ml |

Source: patent US7544483B2, “Method for the production of protamine” (priority 2002, dated 2009)
